Experiment [1] has as its system parent elite stiff stalk inbred corn. The experiment in a line: Postemergence herbicide application in greenhouse: fresh shoot weight and visual injury. Format: in vivo. The conditions noted are these: for pest or weed control at 200 g/ha: Zea mays, post-emergence, read-out: % Visual Injury; for Fresh Weight: weighed 2 weeks after treatment, untreated 76.4 g.
The next experiment relates to control maize. Put plainly: Evaluation of herbicide tolerance, spray at V2 stage, injury symptoms after 10-14 days. Format: in vivo. The following applies: postemergence; tribenuron (Express) 200, chlorimuron (Classic) 200, imazapyr (Arsenal) 200, metsulfuron-methyl (Ally) 35 g ai/ha.
For another experiment, the system named is GAT-HRA maize. The description is as above. Format: in vivo. The following applies: postemergence; tribenuron (Express) 200, chlorimuron (Classic) 200, imazapyr (Arsenal) 200, metsulfuron-methyl (Ally) 35 g ai/ha.
Experiment [2] has as its system Heterozygous GAT-HRA corn. Put plainly: Postemergence herbicide application in greenhouse: fresh shoot weight and visual injury. Format: in vivo. The conditions noted are these: for pest or weed control at 200 g/ha: Zea mays, post-emergence, read-out: % Visual Injury; for Fresh Weight: weighed 2 weeks after treatment, untreated 98.8 g.
The subject of experiment [3] is parent elite stiff stalk inbred corn. The experiment in a line: Preemergence herbicide application in greenhouse: fresh shoot weight and visual injury. Format: in vivo. The following applies: for pest or weed control at 200 g/ha: Zea mays, pre-emergence, 672 h, read-out: % Visual Injury; for Fresh Weight: fresh shoots weighed 4 weeks after treatment, untreated 36.7 g.

In experiment [4] the test system is Heterozygous GAT-HRA corn. The description is as above. The following applies: for pest or weed control at 200 g/ha: Zea mays, pre-emergence, 672 h, read-out: % Visual Injury; for Fresh Weight: fresh shoots weighed 4 weeks after treatment, untreated 47.0 g. Format: in vivo.
The next experiment concerns STS ® soybeans. Put plainly: Postemergence herbicide treatment of soybeans in greenhouse, visual injury. Format: in vivo, soybean. The source says: When possible, containers were thinned to two uniform plants.
A further experiment relates to GAT-HRA soybeans. The experiment is described as above. The format is in vivo, soybean. The conditions noted are these: for % Visual Injury: postemergence, glyphosate 8960, tribenuron-methyl 35, rimsulfuron 35 g/ha. The protocol: (§1) Young regenerated transgenic plants were sprayed with 1× glyphosate (1× rate of glyphosate is 1120 g/ha of glyphosate isopropylamine) to cull segregants. Four replications were performed for each treatment. Plants were then treated with various herbicides, including glyphosate and ALS-inhibitor herbicides.
(§2) Six soybean seeds from each variety to be assayed were planted 1 cm deep in 5.5 (13.97 cm) inch square plastic container of a synthetic growth medium. […] When possible, containers were thinned to two uniform plants. Non-transgenic lines were thinned to two uniform plants per container.
(§3) Results are expressed below in Table 11 as the mean of four replications.

Experiment [5] relates to Wild Type soybeans (Jack). The description is as above. Format: in vivo, soybean. The conditions noted are these: for % Visual Injury: postemergence, glyphosate 8960, tribenuron-methyl 35, rimsulfuron 35 g/ha. The protocol:
as §1, §2, §3

The mark [6] stands for this setting: postemergence, 200 g/ha (glyphosate 3472 g ae/ha, glufosinate ammonium 1870 g/ha), mean of four replications.
[7] abbreviates: preemergence, 200 g/ha, mean of four replications.
Where [8] appears, read: postemergence, 200 g/ha (glyphosate 3472 g ae/ha, glufosinate ammonium 1870 g/ha), 0% no injury, 100% plant death, mean of four replications.
The mark [9] stands for this setting: preemergence, 200 g/ha, 0% no injury, 100% plant death, mean of four replications.

Procedure for GAT-HRA maize: GAT-HRA maize plants were evaluated for tolerance to glyphosate and other herbicides. One protocol used in this evaluation was as follows. At the V2 stage (Ritchie and Hanway (1982), “How a corn plant develops” Spec. Rep. 48. (Coop. Ext. Ser., Iowa State Univ., Ames, Iowa)), plant heights were measured and herbicides were applied by spray application. Ten to fourteen days after the spray application, the transgenic plants were evaluated for injury symptoms and measured for plant height again in order to determine plant growth rates.
Plants were then evaluated at various times after treatment, such as 10 or 14 days after treatment.
Procedure for control maize: At the V2 stage (Ritchie and Hanway (1982), “How a corn plant develops” Spec. Rep. 48. (Coop. Ext. Ser., Iowa State Univ., Ames, Iowa)), plant heights were measured and herbicides were applied by spray application. Ten to fourteen days after the spray application, the transgenic plants were evaluated for injury symptoms and measured for plant height again in order to determine plant growth rates.

Consider `CCOC(=O)c1ccccc1S(=O)(=O)NC(=O)Nc1nc(Cl)cc(OC)n1` [Chlorimuron-ethyl], for which the pest or weed control at 200 g/ha was determined as 93% in experiment [1] ([…]), 15% in experiment [2] ([…]), 100% in [3] and 10% in experiment [4]. The “Fresh Weight” value in experiment [1] (setting [6]) was 10.1 g; in [2] (setting [6]), 95.5 g; in [3] (setting [7]), 9.3 g; in experiment [4] (setting [7]), 39.4 g. Further, the “damage from the treatment” value was “severely damaged or killed” with control maize and “no significant damage” in the experiment on GAT-HRA maize.
As to `CC(C)C1(C)N=C(c2ncccc2C(=O)O)NC1=O` (centres unmarked) [Imazapyr], the pest or weed control at 200 g/ha in experiment [1] (setting [8]) amounted to 100%; in [2] (setting [8]), 1%; in experiment [3] (setting [9]), 99%; in experiment [4] (setting [9]), 30%. Besides, the “Fresh Weight” value in experiment [1] (setting [6]) was 2.3 g; in experiment [2] (setting [6]), 97.8 g; in experiment [3] (setting [7]) it was 0.3 g; in [4] (setting [7]), 44.2 g. Moreover, the figures for the “damage from the treatment” value in the experiment on control maize and in the experiment with GAT-HRA maize were “severely damaged or killed” and “no significant damage”, respectively.
For `COC(=O)c1ccccc1S(=O)(=O)NC(=O)Nc1nc(C)nc(OC)n1` [Metsulfuron-methyl], the pest or weed control at 200 g/ha in experiment [1] (setting [8]) was found to be 100%; in [2] (setting [8]) it was 14%; in [3] (setting [9]), 100%; in experiment [4] (setting [9]), 0%. Also, the “Fresh Weight” value in experiment [1] (setting [6]) turned out to be 1.9 g; in experiment [2] (setting [6]) it was 75.5 g; in experiment [3] (setting [7]), 0.0 g; in [4] (setting [7]), 41.1 g. The “damage from the treatment” value in the experiment on control maize is given as “severely damaged or killed”; in the experiment on GAT-HRA maize it was “no significant damage”.
Regarding `COC(=O)c1ccccc1S(=O)(=O)NC(=O)N(C)c1nc(C)nc(OC)n1` [Tribenuron-methyl], the pest or weed control at 200 g/ha in experiment [1] (setting [8]) was determined as 100%; in [2] (setting [8]), 8%; in experiment [3] (setting [9]), 66%; in experiment [4] (setting [9]), 25%. In addition, the “Fresh Weight” value in experiment [1] (setting [6]) is on record as 1.8 g; in [2] (setting [6]) it was 90.8 g; in experiment [3] (setting [7]), 32.1 g; in experiment [4] (setting [7]), 46.8 g. The “% Visual Injury” value is given as 87% in the experiment with STS ® soybeans (STS ® line 25, glyphosate 8960, tribenuron-methyl 35, rimsulfuron 35 g/ha); 88% with STS ® soybeans (STS ® line 46, glyphosate 8960, tribenuron-methyl 35, rimsulfuron 35 g/ha); 87% in the experiment with STS ® soybeans (STS ®, mean, glyphosate 8960, tribenuron-methyl 35, rimsulfuron 35 g/ha); 59% with GAT-HRA soybeans (event 59, mean); 58% in the experiment with GAT-HRA soybeans (event 59 line 21); 60% in the experiment on GAT-HRA soybeans (event 59 line 28). Moreover, the “% Visual Injury” value in the experiment with GAT-HRA soybeans (event 60, mean) is recorded as 55%; with GAT-HRA soybeans (event 60 line 07), 46%; with GAT-HRA soybeans (event 60 line 11), 71%; with GAT-HRA soybeans (event 60 line 22), 45%; in the experiment with GAT-HRA soybeans (event 60 line 35), 49%; in the experiment on GAT-HRA soybeans (event 60 line 41) it was 38%. Also, the “% Visual Injury” value in the experiment on GAT-HRA soybeans (event 60 line 46) came out at 49%; in the experiment on GAT-HRA soybeans (event 60 line 70) it was 40%; in the experiment with GAT-HRA soybeans (event 60 line 75), 69%; in the experiment with GAT-HRA soybeans (event 60 line 77) it was 56%; with GAT-HRA soybeans (event 60 line 79) it was 69%; with GAT-HRA soybeans (event 60 line 82), 61%. Moreover, the “% Visual Injury” value in the experiment on GAT-HRA soybeans (event 60 line 84) is given as 71%; in the experiment with GAT-HRA soybeans (event 61, mean) it was 54%; in the experiment on GAT-HRA soybeans (event 61 line 02), 41%; with GAT-HRA soybeans (event 61 line 02B), 40%; in the experiment with GAT-HRA soybeans (event 61 line 05) it was 55%; in the experiment on GAT-HRA soybeans (event 61 line 14) it was 65%. In addition, the “% Visual Injury” value in the experiment on GAT-HRA soybeans (event 61 line 18) is reported as 69%; with GAT-HRA soybeans (event 61 line 24) it was 63%; in the experiment with GAT-HRA soybeans (event 61 line 33) it was 80%; in the experiment with GAT-HRA soybeans (event 61 line 34), 76%; in the experiment on GAT-HRA soybeans (event 61 line 47) it was 36%; in the experiment on GAT-HRA soybeans (event 61 line 49), 54%. In addition, the “% Visual Injury” value in the experiment with GAT-HRA soybeans (event 61 line 51) worked out at 60%; in the experiment with GAT-HRA soybeans (event 61 line 60), 45%; with GAT-HRA soybeans (event 61 line 62) it was 43%; in the experiment on GAT-HRA soybeans (event 61 line 99), 34%; with GAT-HRA soybeans (event 64, mean), 43%; in the experiment on GAT-HRA soybeans (event 64 line 41), 55%. The “% Visual Injury” value with GAT-HRA soybeans (event 64 line 47) was 34%; in [5] (Wild Type line 82), 97%; in [5] (Wild Type line Jack) it was 97%; in experiment [5] (Wild Type, mean) it was 97%. Further, the “damage from herbicide treatment” value with GAT-HRA soybeans (35 g/ha, four replications) is listed as “no significant damage”; in experiment [5] (herbicide-treated non-transgenic control soybeans, 35 g/ha), “killed”.

The record behind these values is patent US7803992B2, “Methods and compositions for expressing an herbicide-tolerant polynucleotide” (Pioneer Hi-Bred International, Inc., priority 2005, dated 2010).
